Experimental data: PubChem BioAssay (NCI)
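GI50 = concentration required for 50% inhibition of growth. TGI denotes the concentration required for complete inhibition of growth.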

How the values were obtained:
Assay in all cases: growth of human tumour cells (NCI), 384-well format
SNB-19 CNS = system: SNB-19 CNS
NCI-H226 lung = system: NCI-H226 lung
NCI-H460 NSCLC = system: NCI-H460 NSCLC
SN12C renal = system: SN12C renal
IGROV1 ovarian = system: IGROV1 ovarian
OVCAR-8 ovarian = system: OVCAR-8 ovarian
KM12 colon = system: KM12 colon
OVCAR-5 ovarian = system: OVCAR-5 ovarian
CCRF-CEM leukemia = system: CCRF-CEM leukemia
SK-MEL-5 melanoma = system: SK-MEL-5 melanoma
UACC-62 melanoma = system: UACC-62 melanoma
HCT-15 colon = system: HCT-15 colon
SK-OV-3 ovarian = system: SK-OV-3 ovarian
NCI-H23 lung = system: NCI-H23 lung
BT-549 breast = system: BT-549 breast
SF-295 CNS = system: SF-295 CNS
MCF7 breast = system: MCF7 breast
HOP-62 NSCLC = system: HOP-62 NSCLC
RXF 393 renal = system: RXF 393 renal
M14 melanoma = system: M14 melanoma
UACC-257 melanoma = system: UACC-257 melanoma
NCI-H522 lung = system: NCI-H522 lung
SK-MEL-28 melanoma = system: SK-MEL-28 melanoma
786-0 renal = system: 786-0 renal
TK-10 renal = system: TK-10 renal
CAKI-1 renal = system: CAKI-1 renal
HCC-2998 colon = system: HCC-2998 colon
PC-3 prostate = system: PC-3 prostate
LOX IMVI melanoma = system: LOX IMVI melanoma
OVCAR-3 ovarian = system: OVCAR-3 ovarian
EKVX NSCLC = system: EKVX NSCLC
ACHN renal = system: ACHN renal
HT29 colon = system: HT29 colon
SNB-75 CNS = system: SNB-75 CNS
MDA-MB-435 melanoma = system: MDA-MB-435 melanoma
DU-145 prostate = system: DU-145 prostate
U251 glioblastoma = system: U251 glioblastoma
A498 renal = system: A498 renal
MOLT-4 leukemia = system: MOLT-4 leukemia
NCI/ADR-RES ovarian = system: NCI/ADR-RES ovarian
MALME-3M melanoma = system: MALME-3M melanoma
NCI-H322M lung = system: NCI-H322M lung
OVCAR-4 ovarian = system: OVCAR-4 ovarian
A549 NSCLC = system: A549 NSCLC
K-562 leukemia = system: K-562 leukemia
MDA-MB-231 breast = system: MDA-MB-231 breast
SW-620 colon = system: SW-620 colon
RPMI-8226 leukemia = system: RPMI-8226 leukemia
T-47D breast = system: T-47D breast
HOP-92 NSCLC = system: HOP-92 NSCLC
COLO 205 colon = system: COLO 205 colon
SF-268 CNS = system: SF-268 CNS
MDA-MB-468 breast = system: MDA-MB-468 breast
HCT-116 colon = system: HCT-116 colon
HL-60(TB) leukemia = system: HL-60(TB) leukemia
HS 578T breast = system: HS 578T breast
SF-539 CNS = system: SF-539 CNS
UO-31 renal = system: UO-31 renal

COc1cc2c(NC3CCN(C(C)C)CC3)nc(C3CCCCC3)nc2cc1OCCCN1CCCC1
GI50 (SNB-19 CNS): 1230 nM | TGI (SNB-19 CNS): 3100 nM | GI50 (NCI-H226 lung): 1790 nM | TGI (NCI-H226 lung): 3940 nM | GI50 (NCI-H460 NSCLC): 365 nM | TGI (NCI-H460 NSCLC): 1040 nM | GI50 (SN12C renal): 1120 nM | TGI (SN12C renal): 2950 nM | GI50 (IGROV1 ovarian): 1530 nM | TGI (IGROV1 ovarian): 11300 nM | GI50 (OVCAR-8 ovarian): 1540 nM | TGI (OVCAR-8 ovarian): 2910 nM | GI50 (KM12 colon): 991 nM | TGI (KM12 colon): 2520 nM | GI50 (OVCAR-5 ovarian): 1970 nM | TGI (OVCAR-5 ovarian): 4260 nM | GI50 (CCRF-CEM leukemia): 205 nM | TGI (CCRF-CEM leukemia): 397 nM | GI50 (SK-MEL-5 melanoma): 873 nM | TGI (SK-MEL-5 melanoma): 2120 nM | GI50 (UACC-62 melanoma): 1750 nM | TGI (UACC-62 melanoma): 3150 nM | GI50 (HCT-15 colon): 1240 nM | TGI (HCT-15 colon): 5200 nM | GI50 (SK-OV-3 ovarian): 1410 nM | TGI (SK-OV-3 ovarian): 2970 nM | GI50 (NCI-H23 lung): 1950 nM | TGI (NCI-H23 lung): 4650 nM | GI50 (BT-549 breast): 378 nM | TGI (BT-549 breast): 1340 nM | GI50 (SF-295 CNS): 1800 nM | TGI (SF-295 CNS): 3210 nM | GI50 (MCF7 breast): 1110 nM | TGI (MCF7 breast): 2400 nM | GI50 (HOP-62 NSCLC): 1710 nM | TGI (HOP-62 NSCLC): 3140 nM | GI50 (RXF 393 renal): 347 nM | TGI (RXF 393 renal): 1400 nM | GI50 (M14 melanoma): 1740 nM | TGI (M14 melanoma): 3140 nM | GI50 (UACC-257 melanoma): 1250 nM | TGI (UACC-257 melanoma): 2510 nM | GI50 (NCI-H522 lung): 634 nM | TGI (NCI-H522 lung): 1830 nM | GI50 (SK-MEL-28 melanoma): 1260 nM | TGI (SK-MEL-28 melanoma): 2530 nM | GI50 ([…]-0 renal): 1350 nM | TGI (786-0 renal): 2650 nM | GI50 (TK-10 renal): 1280 nM | TGI (TK-10 renal): 2560 nM | GI50 (CAKI-1 renal): 1390 nM | TGI (CAKI-1 renal): 2720 nM | GI50 (HCC-2998 colon): 1560 nM | TGI (HCC-2998 colon): 3010 nM | GI50 (PC-3 prostate): 1430 nM | TGI (PC-3 prostate): 4160 nM | GI50 (LOX IMVI melanoma): 1450 nM | TGI (LOX IMVI melanoma): 2790 nM | GI50 (OVCAR-3 ovarian): 835 nM | TGI (OVCAR-3 ovarian): 2080 nM | GI50 (EKVX NSCLC): 807 nM | TGI (EKVX NSCLC): 2860 nM | GI50 (ACHN renal): 1790 nM | TGI (ACHN renal): 3800 nM | GI50 (HT29 colon): 285 nM | TGI (HT29 colon): 1110 nM | GI50 (SNB-75 CNS): 1400 nM | TGI (SNB-75 CNS): 2710 nM | GI50 (MDA-MB-435 melanoma): 1160 nM | TGI (MDA-MB-435 melanoma): 2400 nM | GI50 (DU-145 prostate): 1230 nM | TGI (DU-145 prostate): 4290 nM | GI50 (U251 glioblastoma): 1030 nM | TGI (U251 glioblastoma): 2200 nM | GI50 (A498 renal): 683 nM | TGI (A498 renal): 1960 nM | GI50 (MOLT-4 leukemia): 552 nM | TGI (MOLT-4 leukemia): 1910 nM | GI50 (NCI/ADR-RES ovarian): 69000 nM | TGI (NCI/ADR-RES ovarian): > 100000 nM | GI50 (MALME-3M melanoma): 1370 nM | TGI (MALME-3M melanoma): 2680 nM | GI50 (NCI-H322M lung): 1490 nM | TGI (NCI-H322M lung): 3010 nM | GI50 (OVCAR-4 ovarian): 1120 nM | TGI (OVCAR-4 ovarian): 2440 nM | GI50 (A549 NSCLC): 1560 nM | TGI (A549 NSCLC): 3000 nM | GI50 (K-562 leukemia): 484 nM | TGI (K-562 leukemia): 1740 nM | GI50 (MDA-MB-231 breast): 1610 nM | TGI (MDA-MB-231 breast): 3340 nM | GI50 (SW-620 colon): 1550 nM | TGI (SW-620 colon): 2910 nM | GI50 (RPMI-8226 leukemia): 368 nM | TGI (RPMI-8226 leukemia): 1130 nM | GI50 (T-47D breast): 573 nM | TGI (T-47D breast): 1830 nM | GI50 (HOP-92 NSCLC): 1200 nM | TGI (HOP-92 NSCLC): 2460 nM | GI50 (COLO 205 colon): 1330 nM | TGI (COLO 205 colon): 2640 nM | GI50 (SF-268 CNS): 307 nM | TGI (SF-268 CNS): 1520 nM | GI50 (MDA-MB-468 breast): 262 nM | TGI (MDA-MB-468 breast): 587 nM | GI50 (HCT-116 colon): 550 nM | TGI (HCT-116 colon): 1750 nM | GI50 (HL-60(TB) leukemia): 429 nM | TGI (HL-60(TB) leukemia): 1070 nM | GI50 (HS 578T breast): 1750 nM | TGI (HS 578T breast): 3140 nM | GI50 (SF-539 CNS): 292 nM | TGI (SF-539 CNS): 937 nM | GI50 (UO-31 renal): 1320 nM | TGI (UO-31 renal): 2720 nM
